Measurements: patent US20200207820A1, “ANTIVIRAL, ANTIFIBROTIC AND ANTICANCER ACTIVITIES OF ROYAL-JELLY PROTEINS” (priority 2017, published 2020)
“Also recorded” adds a separate entry of the source.

Key:
HCV [1] = assay: Qualitative screening for HCV (+) strand RNA by RT-nested PCR in infected PBMCs and HepG-2 cells; type: cell-based, Hepatitis C virus; settings: HCV-infected PBMCs and HepG-2 cells, 72 h; RJ 0.2 and 1 mg, PFs 1 mg, MRJPs 250 μg, SOV 4 mg (PBMCs only)
Procedure: (§1) PBMCs were obtained by Ficoll-Hypaque density gradient centrifugation method as described previously. In brief, the blood samples from healthy volunteers were diluted with equal volume of PBS, carefully layered on Ficoll-Hypaque, and centrifuged at 2000 rpm, 25° C. for 30 min. Then the undisturbed PBMCs layer (interface) was carefully transferred out, washed with 40 ml RPMI-1640 medium, and centrifuged at 1650 rpm for 10 min. Finally, the supernatant was removed and the cells were suspended in 5 ml of RPMI-1640 medium containing 10% FBS and counted using trypan blue stain.
(§2) HepG-2 cells were grown in RPMI-1640 medium (HyClone) supplemented with 10% heat-inactivated FBS.
(§3) Serum samples were obtained from HCV and HBV infected […] patients […] after agreement by the ethics committee. The HCV and HBV samples were positive for genotype 4a and D, respectively. The infected patients were neither under treatment prior to the study nor co-infected. The sera were kept at −80° C. until use. […]
After cellular infection, the infected medium was replaced with a fresh RPMI-1640 medium containing 10% FBS for positive control wells. […] The HCV (+) strand was detected by reverse transcription-nested polymerase chain reaction (RT-nested PCR) using the Ready-To-Go RT-PCR beads (Amersham Pharmacia Biotech, Piscataway, N.J., USA) following the instructions. […]

HCV [2] = assay: Quantitative analysis of intracellular HCV-RNA (Cobas Ampliprep TaqMan); type: cell-based, Hepatitis C virus; settings: PBMCs and HepG-2 cells, 72 h; SOV in PBMCs only
Procedure: as §1, §2, §3
(§4) SOV at the concentration of 4 mg was incubated only with HCV or HBV-infected PBMCs due to its potent anti-cancer effect. […] Then the HCV-RNA and HBV-DNA within these cells were quantified using the fully automated Cobas Ampliprep TaqMan Analyzer (CAP-CTM). This technique is one of the most recent techniques that used for diagnosis of viral hepatitis quantitatively. […]

HBV = assay: Quantitative analysis of intracellular HBV-DNA (Cobas Ampliprep TaqMan); type: cell-based, hepatitis B virus; settings: PBMCs and HepG-2 cells, 72 h; SOV in PBMCs only
Procedure: as §1, §2, §3, §4

hepatocytes = assay: In vitro assessment of liver fibrosis: CCl4-induced fibrosis in hepatocytes; type: cell-based, Albino rats
Procedure: Hepatocytes were isolated from the liver of two male Albino rats 1 week of age. Rats were anesthetized, then liver was dissected, washed and incubated for 15 min with 10× penicillin and streptomycin. Afterward, the liver was washed using PBS, minced and incubated for 30 min with 3 U/mL of collagenase I with gentle shaking to obtain the cell suspension. The solution was centrifuged for […] at 1000 rpm and the pellet (hepatocytes) was washed, suspended in William's E medium containing 10% FBS and incubated at […] in CO2 incubator. After 90% cell confluent, hepatocytes were passaged with trypsin-EDTA. Then cells were stained with trypan blue, checked for viability and counted using the phase contrast inverted microscope (Olympus IX 81, Tokyo, Japan).
For induction of fibrosis, hepatocytes were incubated with various concentrations (0.13-1.30 mM) of CCl4 for 48 h. At the end of the incubation period, the cell viability was assessed and the IC50 value (half maximal inhibitory concentration of CCl4 to the hepatocytes growth) was calculated by the GraphPad Instat software version 3. This value was used for in vitro induction of fibrosis in hepatocytes (FM). After induction, Fb1 was incubated with the safe concentration of each of the studied compounds and incubated for 72 h at 5% CO2 and 37° C. The normal cells and the untreated Fb1 (Fb) were involved as negative and positive control cells, respectively.
At the end of the incubation period, media were collected and used in the assessment of the hepatocyte damage indices. However, cells were examined morphologically for identification of apoptosis.
Alanine and aspartate aminotransferases (ALT and AST), and albumin were determined using available commercial kits (RAM, Egypt). TNF-α (ELISA kit, RayBiotech, USA) and collagen IV (ELISA kit, Kamiya Biomedical) were determined following the manufacturer's instructions. Nitric oxide (NO) level was assessed by measurement of the nitrite using the Griess reaction, which produced colored azo dye with a maximum absorbance at 490 nm. Hydroxyproline content in the medium was measured using chloramines T and […] solutions. The absorbance of the produced color was read spectrophotometrically at 560 nm and the concentration was determined from the hydroxyproline calibration curve.
Apoptosis was investigated by double staining cells after washing with PBS with 100 μg/mL of ethidium bromide (EB) and acridine orange (AO) as described previously and then visualized under the fluorescent phase contrast microscope.

HepG-2 cell line = assay: Anti-cancer assay (MTT); type: cell-based, human; settings: HepG-2 cells, 72 h
Procedure: The cytotoxic effect of RJ and its isolated PFs against HepG-2 cell line were evaluated. The cell viability was determined by MTT assay to investigate the cytotoxicity. Cells (3×10^3/well) were seeded in 96-well plate and left to attach for overnight. Serial concentrations (6.25-100 μM) of each of the tested compounds were added to the attached cells and incubated for 72 h at 37° C. in an atmosphere of 5% CO2 and the untreated cells were included as negative control. Then, 20 μl of MTT solution (0.5 mg/ml) was added to each well and the plate was incubated at 37° C. and 5% CO2 for 4 h. The medium with MTT was replaced by 150 μl of DMSO and the absorbance of the produced color was read at 570 nm by the microplate reader. The concentration of each of the studied compounds that inhibit the cancer cell growth by 50% (IC50 values) was determined from the dose-response curves. Additionally, the morphological changes of the tumor cells were examined using the phase-contrast microscope.

[3] = Acute toxicity (Karber's method); type: in vivo, male Albino rats
Procedure: Karber's method was used to study the acute toxicity effect of RJ in comparison with SOV using male Albino rats and the median lethal dosage (LD50) was calculated.
Fifty-five male Albino rats (80-120 g) were purchased from MISR University for Science and Technology (animal welfare assurance number A5865-01). Animals were housed in metal cages and allowed free access to a standard commercial diet and tap water. Rats were kept under conventional conditions of temperature, humidity and twelve hours light/dark cycle. All rats were acclimatized to the laboratory environment for one week prior to handling and were observed daily for abnormal signs. Handling of animals complied with the international guide for the care and use of laboratory animals (National Research Council, 1996).
Animals were divided into eleven groups (five animals in each) starting from group I to group X beside the control (received only water as the vehicle). Groups from (I) to (V) were administered RJ intraperitoneally, while groups from (VI) to (X) were orally received SOV using the gavage tube. RJ and SOV were given to the animals at various doses (140, 350, 700, 2500 and 5000 mg/kg bw), one dose for each group of animals (group I and VI received the lowest dose).
All animals were left for 24 h after RJ or SOV administration, and then the number of mortality in each group was recorded for calculation of the LD50 value. Also, the weights of animals in each group were recorded before sacrificing by decapitation. Blood samples were collected in heparin tubes by cardiac puncture for assessment of the erythrocytes, hematocrit (HCT), hematimetric indices, hemoglobin (Hb), platelets, and leukocytes (full and differential counts). In addition, ALT and AST, total proteins, albumin, urea, creatinine, sodium, potassium, triglycerides (TG) and cholesterol were determined using available commercial kits (RAM, Egypt). The vital organs including liver, lung, kidney, and spleen were carefully excised, weighed and examined.

[4] = SOV oral 2500 and 5000 mg/kg bw

For `CC(C)OC(=O)[C@H](C)N[P@](=O)(OC[C@H]1O[C@@H](n2ccc(=O)[nH]c2=O)[C@](C)(F)[C@@H]1O)Oc1ccccc1` [SOV, Sofosbuvir], the “anti-HCV effect (HCV (+) strand RNA, RT-nested PCR)” value (HCV [1]) was “anti-HCV effect”, the “efficacy against HCV (intracellular HCV)” value (HCV [2]) was “less anti-HCV” and the “efficacy against HBV / activity of HBV (intracellular HBV)” value (HBV) was “increases the activity of HBV”. For the same molecule, the “collagen and hydroxyproline levels” value (hepatocytes; CCl4-induced fibrosis in hepatocytes (Fb1)) was “suppressive effect”, the “antifibrotic / therapeutic effect overall” value (hepatocytes; CCl4-induced fibrosis in hepatocytes, compared with SM and SOV) was “less antifibrotic activities” and the “inflammatory mediators' level (NO and TNF-α)” value (hepatocytes; fibrotic cells (Fb1)) was “anti-inflammatory effect”. The “hepatocytes morphology / apoptosis (acridine orange/ethidium bromide staining)” value (hepatocytes; fibrotic hepatocytes (Fb1), 72 h treatment, 200 μg/mL) was “less potency”, the “cytotoxic (anticancer) effect” value (HepG-2 cell line) was “potent activity” and the “cytotoxic (anticancer) effect” value (HepG-2 cell line; listed as Sovaldi) was “more potent anticancer effect than the RJ proteins”. For the same molecule, the body weights ([3]; 24 h, all doses, versus control group) was “didn't cause any significant change; also recorded: no significant change”, the hematological parameters ([3]; 24 h after administration) was “Slight changes” and the serum urea level ([3]; SOV 350-5000 mg/kg bw) was “significant elevation”. The potassium level ([3]; SOV 2500, 5000 mg/kg bw) was “depleted”, the serum sodium level ([3]; SOV 2500, 5000 mg/kg bw) was “elevated” and the ALT activity ([3]; SOV 2500 and 5000 mg/kg bw) was “didn't affect”. The “activity of AST” value ([3]; SOV 2500 and 5000 mg/kg bw) was “significantly elevated”, the “serum level of albumin” value ([3]; SOV 2500 and 5000 mg/kg bw) was “significantly reduce” and the total proteins level ([3]; SOV 2500 and 5000 mg/kg bw) was “didn't affect”. For the same molecule, the TG level ([3]; SOV nearly at all doses) was “significantly increased”, the cholesterol level ([3]; SOV nearly at all doses) was “significantly increased” and the “% organ-body weight ratio, spleen” value ([3]; SOV oral 350 to 5000 mg/kg bw) was “enlargement”. The “% organ-body weight ratio, liver” value [3, 4] was “significant enlargement”, the “% organ-body weight ratio, lung” value [3, 4] was “significant enlargement” and the “% organ-body weight ratio, kidney” value ([3]; SOV oral all given doses (140-5000 mg/kg bw)) was “significant enlargement”. For the same molecule, the mortality ([3]; after 24 h, all studied doses (140-5000 mg/kg bw), RJ intraperitoneal, SOV oral) was “no mortality”, the toxic dose ([3]; rats, all the studied doses) was ≥ 140 mg/kg and the “toxicity on vital organs” value ([3]; rats, liver, lung, kidney, spleen) was “highly toxic effects on kidney, spleen and lung and less toxicity on the liver; also recorded: highly toxic”.

B1: MRJP2: major royal jelly protein 2, bound protein purified from PF50 by CM-Sephadex ion-exchange chromatography (protein, UniProt O77061 18-452, looked up)
Major royal jelly protein 2: AIVRENSPRNLEKSLNVIHEWKYFDYDFGSEERRQAAIQSGEYDHTKNYPFDVDQWRDKTFVTILRYDGVPSTLNVISGKTGKGGRLLKPYPDWSFAEFKDCSKIVSAFKIAIDKFDRLWVLDSGLVNRTVPVCAPKLHVFDLKTSNHLKQIEIPHDIAVNATTGKGGLVSLAVQAIDLANTLVYMADHKGDALIVYQNADDSFHRLTSNTFDYDPRYAKMTIDGESFTLKNGICGMALSPVTNNLYYSPLASHGLYYVNTAPFMKSQFGENNVQYQGSEDILNTQSLAKAVSKNGVLFVGLVGNSAVGCWNEHQSLQRQNLEMVAQNDRTLQMIAGMKIKEELPHFVGSNKPVKDEYMLVLSNRMQKIVNDDFNFDDVNFRILGANVKELIRNTHCVNNNQNDNIQNTNNQNDNNQKNNKKNANNQKNNNQNDN
In the case of B1, the “anti-HCV effect (HCV (+) strand RNA, RT-nested PCR)” value (HCV [1]) is reported as “anti-HCV effect”, the “inflammatory mediators' level (NO and TNF-α)” value (hepatocytes; fibrotic cells (Fb1)) is reported as “Normalization” and the “liver function parameters (ALT, AST, albumin) in medium” value (hepatocytes; fibrotic cells (Fb1)) is reported as “Improvement”. For the same molecule, the “cytotoxic (anticancer) effect” value (HepG-2 cell line) was “nearly as potent as SOY and 5-FU”.
